Test results published in the supplement of paper PMC10307832.

Compound: CC1=CN=C(N=C1C2=CNC(=C2)C(=O)N[C@H](CO)C3=CC(=CC=C3)Cl)NC4=C(C=C(C=C4)F)Cl [VX-11e]
Test: relative viability (nuclei count vs DMSO), 5 days (fraction); higher = more cells survive
Outline: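 Only plates meeting two conditions passed: control CV below 25% and at least one doubling. Lung cancer cell lines, kept overnight at 37 °C in 1536-well plates, were pinned with five library-drug doses (not always all listed) √10 apart on vehicle-anchored plates and grown 5 days without medium change. A one-step fix, permeabilisation and Hoechst stain preceded 4× imaging and MetaXpress nuclear counting. Viability equals treated-well nuclei divided by vehicle-well nuclei, as the median over plates.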

| Cell Line | relative viability (0.04 µM) | relative viability (0.1265 µM) | relative viability (0.4 µM) | relative viability (1.265 µM) | relative viability (4 µM) |
| --- | --- | --- | --- | --- | --- |
| NCI-H727 | 0.784 | 0.933 | 0.687 | 0.551 | 0.347 |
| NCI-H838 | 0.965 | 0.913 | 0.842 | 0.852 | 0.736 |
| NCI-H1299 | 1.01 | 0.981 | 1.03 | 1.03 | 0.49 |
| NCI-H1355 | 0.766 | 0.842 | 0.771 | 0.756 | 0.437 |
| NCI-H1395 | 0.781 | 0.846 | 0.586 | 0.717 | 0.611 |
| NCI-H1437 | 0.98 | 0.906 | 0.924 | 0.746 | 0.621 |
| NCI-H1563 | 0.983 | 0.916 | 0.908 | 0.944 | 0.82 |
| NCI-H1648 | 0.978 | 0.958 | 1.54 | 0.694 | 0.624 |
| NCI-H1650 | 0.866 | 0.886 | 0.521 | 0.668 | 0.652 |
| NCI-H1651 | 0.934 | 0.921 | 0.959 | 0.861 | 0.939 |
| NCI-H1666 | 1.02 | 0.978 | 0.764 | 0.805 | 0.679 |
| NCI-H1703 | 0.828 | 1.11 | 0.632 | 0.961 | 0.74 |
| NCI-H1734 | 0.835 | 0.858 | 0.635 | 0.632 | 0.411 |
| NCI-H1755 | 1.03 | 0.978 | 0.978 | 0.992 | 0.817 |
| NCI-H1792 | 0.604 | 0.852 | 0.236 | 0.534 | 0.174 |
| NCI-H1793 | – | 0.8 | – | 0.752 | 0.301 |
| NCI-H1915 | 0.992 | 0.784 | 0.784 | 0.734 | 0.489 |
| NCI-H1944 | 0.874 | 0.869 | 0.525 | 0.78 | 0.558 |
| NCI-H1975 | 0.95 | 0.885 | 0.774 | 0.816 | 0.598 |
| NCI-H1993 | – | 0.968 | 0.673 | 0.809 | 0.662 |

| Cell Line | relative viability (0.04 µM) | relative viability (0.1265 µM) | relative viability (0.4 µM) | relative viability (1.265 µM) | relative viability (4 µM) |
| --- | --- | --- | --- | --- | --- |
| NCI-H2009 | 1.12 | 0.962 | 0.932 | 0.481 | 0.269 |
| NCI-H2023 | 0.941 | 0.957 | 0.557 | 0.569 | 0.445 |
| NCI-H2085 | 1.04 | 0.949 | 0.923 | 0.84 | 0.696 |
| NCI-H2087 | 1.05 | 0.989 | – | 0.566 | 0.293 |
| NCI-H2126 | 0.682 | 0.935 | 0.701 | 0.894 | 0.808 |
| NCI-H2170 | 0.862 | 0.938 | 0.871 | 0.913 | 0.949 |
| NCI-H2228 | 1.13 | 0.954 | 0.407 | 0.776 | 0.428 |
| NCI-H2342 | 0.666 | 1.03 | 0.923 | 0.992 | 0.9 |
| NCI-H2347 | 1.01 | 1.05 | 0.853 | 0.752 | 0.469 |
| NCI-H2405 | 1.01 | 0.934 | 0.901 | 0.943 | 0.462 |
| NCI-H3122 | 1.02 | 0.959 | 0.696 | 0.888 | 0.564 |
| PC-3 [JPC-3] | 0.997 | 1.02 | 0.998 | 0.981 | 0.832 |
| PC-14 | 1.05 | 0.954 | 0.659 | 0.799 | 0.491 |
| RERF-LC-KJ | 1.05 | 0.895 | 0.99 | 0.989 | 0.789 |
| SK-LU-1 | 1.09 | 0.928 | 0.831 | 0.911 | 0.346 |
| SK-MES-1 | 1.06 | 0.921 | 0.886 | 0.748 | 0.35 |
| SW 900 | 0.722 | 0.768 | 0.182 | 0.473 | 0.541 |
| SW 1573 | 0.989 | 0.993 | 0.704 | 0.778 | 0.487 |
| UMC-11 | 0.757 | 0.909 | 0.962 | 0.791 | 0.889 |
